{"source": "the NIST ThermoML archive (doi:10.1021/je0604030)", "conditions": "Liquid, Ebulliometric method (Recirculating still)", "note": "± gives the expanded uncertainty stated by the source.", "data": [{"smiles": "C", "note": "[methane]", "values": [{"measurement": "vapor or sublimation pressure", "setting": "159.61 K", "result": "1567 ± 50", "unit": "kPa"}, {"measurement": "vapor or sublimation pressure", "setting": "161.58 K", "result": "1695 ± 54", "unit": "kPa"}, {"measurement": "vapor or sublimation pressure", "setting": "169.38 K", "result": "2276 ± 73", "unit": "kPa"}, {"measurement": "vapor or sublimation pressure", "setting": "173.9 K", "result": "2672 ± 86", "unit": "kPa"}, {"measurement": "vapor or sublimation pressure", "setting": "178.93 K", "result": "3170 ± 100", "unit": "kPa"}]}, {"smiles": "FC(F)(F)F", "note": "[tetrafluoromethane]", "values": [{"measurement": "vapor or sublimation pressure", "setting": "159.61 K", "result": "243 ± 8", "unit": "kPa"}, {"measurement": "vapor or sublimation pressure", "setting": "161.58 K", "result": "269 ± 9", "unit": "kPa"}, {"measurement": "vapor or sublimation pressure", "setting": "169.38 K", "result": "431 ± 14", "unit": "kPa"}, {"measurement": "vapor or sublimation pressure", "setting": "173.9 K", "result": "517 ± 17", "unit": "kPa"}, {"measurement": "vapor or sublimation pressure", "setting": "178.93 K", "result": "651 ± 21", "unit": "kPa"}]}]}
